Reference: patent publication US20240261294A1, “METHOD FOR TREATING IDH INHIBITOR-RESISTANT SUBJECTS” (Eli Lilly and Company, priority 2021, published 2024)
Substitutions are numbered along the chain they refer to. Read-outs that look alike come from different tables or passages of the source.

Molecular target: T1, IDH2 R140Q + Q316E trans (Homo sapiens, UniProt P48735, Q316E/R140Q)
T1 construct: expressed in transfected cells; host or cells: U-87 MG
T1 sequence (P48735 40-452 R140Q): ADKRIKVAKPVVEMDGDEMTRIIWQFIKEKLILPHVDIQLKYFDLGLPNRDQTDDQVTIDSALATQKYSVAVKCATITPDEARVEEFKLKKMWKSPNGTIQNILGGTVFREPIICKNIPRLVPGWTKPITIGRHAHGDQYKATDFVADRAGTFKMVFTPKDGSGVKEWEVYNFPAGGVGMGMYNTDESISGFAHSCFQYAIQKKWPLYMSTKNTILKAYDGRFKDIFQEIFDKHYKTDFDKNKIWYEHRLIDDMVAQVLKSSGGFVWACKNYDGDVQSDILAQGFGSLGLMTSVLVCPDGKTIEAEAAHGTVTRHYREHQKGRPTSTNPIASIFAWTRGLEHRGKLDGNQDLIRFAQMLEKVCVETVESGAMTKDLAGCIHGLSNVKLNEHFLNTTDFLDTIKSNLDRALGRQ
T1 sequence (P48735 40-452 Q316E): T1 sequence (P48735 40-452 R140Q) with Q101R, Q277E
Test: Inhibition of 2-HG production in IDH2 mutant U-87 MG cells
Type: cell-based

- IC50 (IDH2 R140Q + Q316E trans, 72 hours incubation, 12.5K cells/well, 150 μl media/well, read-out: IC50, inhibition of 2-HG production): 5.84 nM
- IC50 (IDH2 R140Q_Q316E trans, 16 hours incubation, 50K cells/well, 100 μl media/well, read-out: Relative IC50 (nM) Mean, inhibition of 2-HG production): 23 nM
SMILES: C=CC(=O)N1CCN([C@@H](CC2CC2)c2ccc([C@H](C)Nc3ncc4c(n3)N(CC)C(=O)OC4)cc2)CC1 [Compound A, 7-[[(1S)-1-[4-[(1S)-2-cyclopropyl-1-(4-prop-2-enoylpiperazin-1-yl)ethyl]phenyl]ethyl]amino]-1-ethyl-4H-pyrimido[4,5-d][1,3]oxazin-2-one]
